Test results reported in the CheMixHub ionic liquid set.

Experiment: xn = mol fraction of the nth substance listed

CCCCCCCC[n+]1ccn(C)c1.F[P-](F)(F)(F)(F)F + CN(C)C=O
viscosity [mPa·s], 101 kPa
Conditions | 293.15 K | 303.15 K | 313.15 K | 323.15 K | 333.15 K | 343.15 K | 353.15 K | 363.15 K
x1 = 0.002835 | 0.969 | 0.865 | 0.776 | 0.705 | 0.644 | 0.591 | 0.546 | 0.505
x1 = 0.00569 | 0.994 | 0.887 | 0.798 | 0.723 | 0.659 | 0.604 | 0.556 | 0.514
x1 = 0.01089 | 1.044 | 0.929 | 0.838 | 0.754 | 0.686 | 0.628 | 0.578 | 0.533
x1 = 0.01648 | 1.097 | 0.973 | 0.879 | 0.786 | 0.714 | 0.652 | 0.599 | 0.552
x1 = 0.02114 | 1.144 | 1.013 | 0.916 | 0.815 | 0.739 | 0.674 | 0.617 | 0.569
x1 = 0.02677 | 1.201 | 1.059 | 0.961 | 0.848 | 0.768 | 0.699 | 0.639 | 0.588

CCCC[n+]1ccn(C)c1.[Cl-] + CN(C)C=O
101 kPa
Conditions | electrical conductivity [S/m] | viscosity [mPa·s]
293.15 K, x2 = 0.9 | – | 3.4
298.15 K, x1 = 0.0172 | – | 0.98
298.15 K, x2 = 0.5541 | 0.322 | 41.1
298.15 K, x2 = 0.975 | 0.574 | 0.96
303.15 K, x2 = 0.5056 | – | 52.3
303.15 K, x2 = 0.6034 | – | 21.3
303.15 K, x2 = 0.7982 | – | 4.15
303.15 K, x2 = 0.9503 | – | 1.14
308.15 K, x1 = 0.0086 | – | 0.82
308.15 K, x2 = 0.8014 | – | 3.51
308.15 K, x2 = 0.8999 | – | 1.53
308.15 K, x2 = 0.974 | – | 0.94

CCCC[n+]1ccn(C)c1.O=S(=O)([O-])C(F)(F)F + CN(C)c1ccccc1
Conditions | viscosity [mPa·s]
308.15 K, 100 kPa, x2 = 0 | 52.2

CCCC[N+]1(C)CCCC1.O=S(=O)([N-]S(=O)(=O)C(F)(F)F)C(F)(F)F + CO
101 kPa, frequency 0.001 MHz
Conditions | electrical conductivity [S/m]
293.15 K, x1 = 0.05 | 0.368
293.15 K, x1 = 0.26 | 1.77
293.15 K, x1 = 0.37 | 2.11
298.15 K, x1 = 0.26 | 1.93
303.15 K, x1 = 0.26 | 2.17
303.15 K, x1 = 0.42 | 2.61
308.15 K, x1 = 0.26 | 2.38
308.15 K, x1 = 0.47 | 2.85
308.15 K, x1 = 0.68 | 1.84
313.15 K, x1 = 0.32 | 2.79
313.15 K, x1 = 0.53 | 2.91
313.15 K, x1 = 0.68 | 2.08
313.15 K, x1 = 0.74 | 1.8
313.15 K, x1 = 0.84 | 1.29
313.15 K, x1 = 1 | 0.488
318.15 K, x1 = 0.21 | 2.4
318.15 K, x1 = 0.63 | 2.55
318.15 K, x1 = 0.68 | 2.27
318.15 K, x1 = 0.79 | 1.7
318.15 K, x1 = 0.84 | 1.43

101 kPa
Conditions | viscosity [mPa·s]
293.15 K, x1 = 0.05 | 1.02
293.15 K, x1 = 0.26 | 8.31
293.15 K, x1 = 0.37 | 12.95
298.15 K, x1 = 0.26 | 7.2
303.15 K, x1 = 0.26 | 6.29
303.15 K, x1 = 0.42 | 11.11
308.15 K, x1 = 0.26 | 5.53
308.15 K, x1 = 0.47 | 10.87
308.15 K, x1 = 0.68 | 16.54
313.15 K, x1 = 0.32 | 6.15
313.15 K, x1 = 0.53 | 10.55
313.15 K, x1 = 0.68 | 14.3
313.15 K, x1 = 0.74 | 16.1
313.15 K, x1 = 0.84 | 21.3
313.15 K, x1 = 1 | 35.7
318.15 K, x1 = 0.21 | 3.3
318.15 K, x1 = 0.63 | 11.22
318.15 K, x1 = 0.68 | 12.47
318.15 K, x1 = 0.79 | 15.95
318.15 K, x1 = 0.84 | 18.39
318.15 K, x1 = 0.95 | 25.2

CCCC[n+]1ccn(C)c1.COP(=O)([O-])OC + CO
viscosity [mPa·s], 101 kPa
Conditions | 293.15 K | 308.15 K | 313.15 K | 318.15 K
x2 = 0.404 | – | 68.7 | – | 44.37
x2 = 0.8 | 7.184 | – | 4.401 | –

CCCC[n+]1ccn(C)c1.N[C@@H](CCC(=O)O)C(=O)[O-] + CO
101 kPa
Conditions | viscosity [mPa·s]
298.15 K, x2 = 0.2002 | 46.1
298.15 K, x2 = 0.2995 | 34.4
298.15 K, x2 = 0.7 | 4.97
298.15 K, x2 = 0.9 | 1.24
303.15 K, x2 = 0.6002 | 9.62
308.15 K, x2 = 0.6002 | 8.63
308.15 K, x2 = 0.8001 | 2.83
313.15 K, x2 = 0.2002 | 25.6
313.15 K, x2 = 0.7 | 4.55

CCCC[n+]1ccn(C)c1.[Cl-] + CO
101 kPa, frequency 0 MHz
Conditions | electrical conductivity [S/m]
293.15 K, x1 = 0.007978 | 0.93
303.15 K, x1 = 0.00449 | 0.66
313.15 K, x1 = 0.002223 | 0.42
313.15 K, x1 = 0.00354 | 0.6
323.15 K, x1 = 0.00449 | 0.83

101 kPa
Conditions | electrical conductivity [S/m] | viscosity [mPa·s]
293.15 K, x2 = 0.5001 | – | 65
293.15 K, x2 = 0.5458 | – | 40.4
298.15 K, x2 = 0.7015 | 2.19 | 7.5
303.15 K, x2 = 0.5594 | – | 27.1
303.15 K, x2 = 0.7001 | – | 6.8
308.15 K, x2 = 0.8999 | – | 1.19
308.15 K, x2 = 0.95 | – | 0.79
